Consider 26 compounds from patent US12570642B2, “GLP-IR modulating compounds” (Gilead Sciences, Inc., priority 2021, dated 2026).

This experiment deals with GLP-1R (Homo sapiens, UniProt P43220). The experiment in a line: GLP-1R Activation - cAMP Assay. It is filed as cell-based. The conditions noted are these: each compound run on one of the two cAMP assays (Assay 1 or Assay 2, not specified). The gist of the method: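 cAMP rise read by HTRF after 30 min agonist exposure (10-point titration, 37 °C) in HBSS/20 mM Hepes/0.1% BSA, following 1 h pre-incubation. Cells: stable GLP-1R CHO line, 1,000/well, seeded overnight. Sigmoidal fit of response vs log concentration gives EC50.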
In general terms: Cyclic AMP is a second messenger, typically raised through Gs and lowered through Gi signalling.

Setting [1] is: cAMP increase in CHO cells stably expressing GLP-1R.

Chain of GLP-1R (P43220 24-463): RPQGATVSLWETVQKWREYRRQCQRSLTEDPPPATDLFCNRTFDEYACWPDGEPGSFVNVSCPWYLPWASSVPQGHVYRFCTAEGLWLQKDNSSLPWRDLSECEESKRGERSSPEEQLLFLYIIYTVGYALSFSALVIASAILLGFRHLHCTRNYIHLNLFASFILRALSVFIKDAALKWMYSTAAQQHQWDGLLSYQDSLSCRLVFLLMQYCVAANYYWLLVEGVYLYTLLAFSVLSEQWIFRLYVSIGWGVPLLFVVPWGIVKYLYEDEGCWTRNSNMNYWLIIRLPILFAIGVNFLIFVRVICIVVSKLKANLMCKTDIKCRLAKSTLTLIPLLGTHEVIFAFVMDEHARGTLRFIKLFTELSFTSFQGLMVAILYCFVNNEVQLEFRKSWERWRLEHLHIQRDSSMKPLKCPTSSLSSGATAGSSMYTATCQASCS

Consider `N#Cc1ccc(COc2cccc(-c3cc(F)c(Cc4nc5ccc(C(=O)O)cc5n4[C@H]4COC[C@H]4C(F)F)cc3F)n2)c(F)c1` (single isomer, unassigned) [Example 234], for which, under setting [1], the midpoint of the response, the EC50, lay at 0.448 nM. In other words, the sub-nanomolar range.

Turning to `N#Cc1ccc(COc2cccc(-c3cc(F)c(Cc4nc5ccc(C(=O)O)cc5n4C4CCCC45CC5)cc3F)n2)c(F)c1` (centres unmarked) [Example 63, 2-(4-(6-((4-cyano-2-fluorobenzyl)oxy)pyridin-2-yl)-2,5-difluorobenzyl)-1-(spiro[2.4]heptan-4-yl)-1H-benzo[d]imidazole-6-carboxylic Acid], under setting [1], the EC50 – broadly, the concentration needed to bring the measured effect to its halfway point – was determined as 2.55 nM.

Compound `CO[C@@H]1CCOC[C@@H]1n1c(Cc2cc(F)c(-c3cccc(OCc4ccc(C#N)cc4F)n3)cc2F)nc2ccc(C(=O)O)cc21` (single isomer, unassigned) [Example 408] showed an EC50 under setting [1] of 0.633 nM.

Take `CC1(C)COC[C@H]1n1c(Cc2cc(F)c(-c3cccc(OCc4ccc(C(F)F)cc4F)n3)cc2F)nc2ccc(C(=O)O)cc21` (single isomer, unassigned) [Example 383A]: under setting [1], it took 0.747 nM to reach a half-maximal effect (EC50).

`CC1(C)COC[C@H]1n1c(Cc2cc(F)c(-c3cccc(OCc4ccc(Cl)cc4)n3)cc2F)nc2ccc(C(=O)O)cc21` (single isomer, unassigned) [Example 385A] displayed an EC50 under setting [1] of 0.089 nM.

Compound `COC[C@]1(C)COCC1n1c(Cc2cc(F)c(-c3cccc(OCc4ccc(Cl)cc4F)n3)cc2F)nc2ccc(C(=O)O)cc21` (stereo in doubt) [Example 549, 2-(4-(6-((4-chloro-2-fluorobenzyl)oxy)pyridin-2-yl)-2,5-difluorobenzyl)-1-((3R,4S)-4-(methoxymethyl)-4-methyltetrahydrofuran-3-yl)-1H-benzo[d]imidazole-6-carboxylic acid] gave an EC50 under setting [1] of 0.727 nM. This EC50 lies about 8.2-fold higher than the previous one.

Under setting [1], `COCCn1c(Cc2cc(F)c(-c3cc(O)cc(OCc4ccc(C#N)cc4F)n3)cc2F)nc2ccc(C(=O)O)cc21` [Example 44, 2-(4-(6-((4-cyano-2-fluorobenzyl)oxy)-4-hydroxypyridin-2-yl)-2,5-difluorobenzyl)-1-(2-methoxyethyl)-1H-benzo[d]imidazole-6-carboxylic Acid] showed a half-maximal effective concentration (EC50) of 0.81 nM.

The compound `CC1(C)COCC1n1c(Cc2cc(F)c(-c3cccc(OCc4cnc(Cl)cc4F)n3)cc2F)nc2ccc(C(=O)O)cc21` (centres unmarked) [Example 295, 2-(4-(6-((6-chloro-4-fluoropyridin-3-yl)methoxy)pyridin-2-yl)-2,5-difluorobenzyl)-1-(4,4-dimethyltetrahydrofuran-3-yl)-1H-benzo[d]imidazole-6-carboxylic acid] had an EC50 under setting [1] of 0.042 nM.

`CO[C@@H](C)[C@H](C)n1c(Cc2cc(F)c(-c3cccc(OCc4ccc(Cl)cc4F)n3)cc2F)nc2ccc(C(=O)O)cc21` [Example 564, 2-(4-(6-((4-chloro-2-fluorobenzyl)oxy)pyridin-2-yl)-2,5-difluorobenzyl)-1-((2S,3S)-3-methoxybutan-2-yl)-1H-benzo[d]imidazole-6-carboxylic acid] came in with an EC50 under setting [1] of 2.29 nM.

As to `N#Cc1ccc(COc2cccc(-c3cc(F)c(Cc4nc5ccc(C(=O)O)cc5n4C[C@@]45CO[C@@H](CCO4)C5)cc3F)n2)c(F)c1` (racemic) [Example 272, 1-(((5S)-2,6-dioxabicyclo[3.2.1]octan-1-yl)methyl)-2-(4-(6-((4-cyano-2-fluorobenzyl)oxy)pyridin-2-yl)-2,5-difluorobenzyl)-1H-benzo[d]imidazole-6-carboxylic acid], a half-maximal effect under setting [1] (EC50) was put at 2.11 nM.

As to `N#Cc1ccc(COc2cccc(-c3cc(F)c(Cc4nc5ccc(C(=O)O)cc5n4[C@H]4COCC45CC5)cc3F)n2)c(F)c1` (single isomer, unassigned) [Example 259], a half-maximal effect under setting [1] (EC50) was put at 0.578 nM. Compared with the last compound, the EC50 is about 3.7-fold lower.

As to `N#Cc1ccc(COc2cccc(-c3cc(F)c(Cc4nc5ccc(C(=O)O)cc5n4[C@@H]4COC[C@H]4C4CC4)cc3F)n2)c(F)c1` [Example 190, 2-(4-(6-((4-cyano-2-fluorobenzyl)oxy)pyridin-2-yl)-2,5-difluorobenzyl)-1-((3S,4S)-4-cyclopropyltetrahydrofuran-3-yl)-1H-benzo[d]imidazole-6-carboxylic acid], the EC50 under setting [1] came to 0.061 nM. Compared with the last compound, the EC50 is about 9.5-fold lower.

Under setting [1], `COCCn1c(Cc2cc(F)c(-c3cccc(OCc4ccc(C#N)cc4F)n3)cc2Cl)nc2c(F)cc(C(=O)O)cc21` [Example 351, 2-(2-chloro-4-(6-((4-cyano-2-fluorobenzyl)oxy)pyridin-2-yl)-5-fluorobenzyl)-4-fluoro-1-(2-methoxyethyl)-1H-benzo[d]imidazole-6-carboxylic acid] gave a concentration for a half-maximal effect (EC50) of 0.074 nM.

`Cc1cnc(COc2cccc(-c3cc(F)c(Cc4nc5ccc(C(=O)O)cc5n4[C@@H]4COCC4(C)C)cc3F)n2)c(F)c1` [Example 237, (S)-2-(2,5-difluoro-4-(6-((3-fluoro-5-methylpyridin-2-yl)methoxy)pyridin-2-yl)benzyl)-1-(4,4-dimethyltetrahydrofuran-3-yl)-1H-benzo[d]imidazole-6-carboxylic acid] came in with an EC50 under setting [1] of 0.52 nM.

Consider `CC1(C)COC[C@H]1n1c(Cc2cc(F)c(-c3cccc(OCc4ccc(OCC(F)(F)F)nc4)n3)cc2F)nc2ccc(C(=O)O)cc21` [Example 424, (S)-2-(2,5-difluoro-4-(6-((6-(2,2,2-trifluoroethoxy)pyridin-3-yl)methoxy)pyridin-2-yl)benzyl)-1-(4,4-dimethyltetrahydrofuran-3-yl)-1H-benzo[d]imidazole-6-carboxylic acid], for which, under setting [1], the midpoint of the response, the EC50, lay at 0.59 nM. This EC50 and that of the compound before are within 1.5-fold of each other.

The compound `N#Cc1ccc(COc2cccc(-c3cc(F)c(Cc4nc5ccc(C(=O)O)cc5n4[C@H]4CO[C@H]5OCC[C@H]54)cc3F)n2)c(F)c1` [Example 20, 2-(4-(6-((4-cyano-2-fluorobenzyl)oxy)pyridin-2-yl)-2,5-difluorobenzyl)-1-((3R,3aS,6aR)-hexahydrofuro[2,3-b]furan-3-yl)-1H-benzo[d]imidazole-6-carboxylic Acid] registered a concentration giving a half-maximal response (EC50) under setting [1] of 0.35 nM.

Consider `CC1(C)COC[C@H]1n1c(Cc2ccc(-c3ccc(F)c(OCc4ccc(Cl)cc4F)n3)cc2F)nc2ccc(C(=O)O)cc21` [Example 332, (S)-2-(4-(6-((4-chloro-2-fluorobenzyl)oxy)-5-fluoropyridin-2-yl)-2-fluorobenzyl)-1-(4,4-dimethyltetrahydrofuran-3-yl)-1H-benzo[d]imidazole-6-carboxylic acid], for which the half-maximal effective concentration (EC50) under setting [1] came to 0.159 nM. Against the preceding compound, the EC50 is about 2.2-fold lower.

The compound `CC1(C)COC[C@H]1n1c(Cc2cc(F)c(-c3ccc(F)c(OCc4ccc(Cl)cc4Cl)n3)cc2F)nc2ccc(C(=O)O)cc21` [Example 398, (S)-2-(4-(6-((2,4-dichlorobenzyl)oxy)-5-fluoropyridin-2-yl)-2,5-difluorobenzyl)-1-(4,4-dimethyltetrahydrofuran-3-yl)-1H-benzo[d]imidazole-6-carboxylic acid] returned an EC50 under setting [1] of 0.217 nM.

In turn, `CC1(C)OCCC1n1c(Cc2cc(F)c(-c3cccc(OCc4ccc(C#N)cc4F)n3)cc2F)nc2ccc(C(=O)O)cc21` (centres unmarked) [Example 74, 2-(4-(6-((4-cyano-2-fluorobenzyl)oxy)pyridin-2-yl)-2,5-difluorobenzyl)-1-(2,2-dimethyltetrahydrofuran-3-yl)-1H-benzo[d]imidazole-6-carboxylic Acid] returned an EC50 under setting [1] of 4.38 nM.

Under setting [1], `CC1(C)COC[C@H]1n1c(Cc2ccc(-c3ccc(F)c(OCc4ccc(-n5ccnn5)cc4F)n3)cc2F)nc2c(F)cc(C(=O)O)cc21` [Example 235, (S)-1-(4,4-dimethyltetrahydrofuran-3-yl)-4-fluoro-2-(2-fluoro-4-(5-fluoro-6-((2-fluoro-4-(1H-1,2,3-triazol-1-yl)benzyl)oxy)pyridin-2-yl)benzyl)-1H-benzo[d]imidazole-6-carboxylic acid] had a 50% effective concentration (EC50) of 0.191 nM. This EC50 lies about 23-fold lower than the previous one.

Under setting [1], `CC1(C)COC[C@H]1n1c(Cc2ccc(-c3cccc(OCc4ccc(C#N)cc4)n3)cc2F)nc2ccc(C(=O)O)cc21` [Example 373, (S)-2-(4-(6-((4-cyanobenzyl)oxy)pyridin-2-yl)-2-fluorobenzyl)-1-(4,4-dimethyltetrahydrofuran-3-yl)-1H-benzo[d]imidazole-6-carboxylic acid] had an EC50 of 0.294 nM.

Under “[…]”, `COC(=O)N1C[C@H](OC)[C@H](n2c(Cc3cc(F)c(-c4cccc(OCc5ccc(C#N)cc5F)n4)cc3F)nc3ccc(C(=O)O)cc32)C1` [Example 85] had an EC50 of 1440 nM. This lies in the single-digit micromolar range.

`C[C@H]1COC[C@H]1n1c(Cc2cc(F)c(-c3ccc(F)c(OCc4ccc(Cl)cc4F)n3)cc2F)nc2ccc(C(=O)O)cc21` [Example 471, 2-(4-(6-((4-chloro-2-fluorobenzyl)oxy)-5-fluoropyridin-2-yl)-2,5-difluorobenzyl)-1-((3S,4R)-4-methyltetrahydrofuran-3-yl)-1H-benzo[d]imidazole-6-carboxylic acid] returned a concentration giving a half-maximal response (EC50) under setting [1] of 0.041 nM.

In the case of `CC1(C)COC[C@H]1n1c(Cc2cc(F)c(-c3cccc(OCc4ccc(C(F)(F)F)cc4C#N)n3)cc2F)nc2ccc(C(=O)O)cc21` [Example 413, (S)-2-(4-(6-((2-cyano-4-(trifluoromethyl)benzyl)oxy)pyridin-2-yl)-2,5-difluorobenzyl)-1-(4,4-dimethyltetrahydrofuran-3-yl)-1H-benzo[d]imidazole-6-carboxylic acid], it took 0.281 nM to reach a half-maximal effect under setting [1] (EC50).

Take `CC1(C)COC[C@H]1n1c(Cc2cc(F)c(-c3ccc(F)c(OCc4cnc(-n5ccnn5)cc4Cl)c3)cc2F)nc2ccc(C(=O)O)cc21` [Example 388, (S)-2-((3′-((4-chloro-6-(1H-1,2,3-triazol-1-yl)pyridin-3-yl)methoxy)-2,4′,5-trifluoro-[1,1′-biphenyl]-4-yl)methyl)-1-(4,4-dimethyltetrahydrofuran-3-yl)-1H-benzo[d]imidazole-6-carboxylic acid]: under setting [1], the EC50 stood at 0.053 nM.

For the compound `CC1(C)COC[C@H]1n1c(Cc2c(F)cc(-c3ccc(F)c(OCc4ccc(C#N)cc4)n3)c(F)c2F)nc2ccc(C(=O)O)cc21` [Example 283, (S)-2-(4-(6-((4-cyanobenzyl)oxy)-5-fluoropyridin-2-yl)-2,3,6-trifluorobenzyl)-1-(4,4-dimethyltetrahydrofuran-3-yl)-1H-benzo[d]imidazole-6-carboxylic acid], the concentration for a half-maximal effect (EC50) under setting [1] amounted to 0.477 nM.
